Source: ChEMBL document CHEMBL3352323, “Lead optimization of a pyrazole sulfonamide series of Trypanosoma brucei N-myristoyltransferase inhibitors: identification and evaluation of CNS penetrant compounds as potential treatments for stage 2 human African trypanosomiasis” (J Med Chem, 2014)
Active and inactive are the calls of the source. The rule behind the calls is not given here.

Legend:
[1] = test system: MRC5; assay: cells; conditions: Homo sapiens, MRC5, 69 h
Description: Antiproliferative activity against human MRC5 cells assessed as reduction cell viability incubated for 69 hrs by rezasurin dye based assay

[2] = Inhibition of Trypanosoma brucei N-myristoyltransferase assessed as transfer of [3H]-myristic acid to a biotinylated substrate peptide (GCGGSKVKPQPPQAK(biotin)-amide by scintillation proximity assay
[3] = test system: Trypanosoma brucei; assay: microbe, parasite or virus in culture; conditions: BSF427, 69 h
Description: Antitrypanosomal activity against Trypanosoma brucei BSF427 expressing VSG118 infected in human MRC5 cells assessed as reduction cell viability incubated for 69 hrs by rezasurin dye based assay

[4] = Selectivity index, IC50 for human N-myristoyltransferase to EC50 for Trypanosoma brucei; type: functional
[5] = target: T1, Glycylpeptide N-tetradecanoyltransferase 1 (Homo sapiens, UniProt P30419); assay: Inhibition of human N-myristoyltransferase 1 assessed as transfer of [3H]-myristic acid to a biotinylated substrate peptide (GCGGSKVKPQPPQAK(biotin)-amide by scintillation proximity assay
T1 sequence (P30419 whole entry): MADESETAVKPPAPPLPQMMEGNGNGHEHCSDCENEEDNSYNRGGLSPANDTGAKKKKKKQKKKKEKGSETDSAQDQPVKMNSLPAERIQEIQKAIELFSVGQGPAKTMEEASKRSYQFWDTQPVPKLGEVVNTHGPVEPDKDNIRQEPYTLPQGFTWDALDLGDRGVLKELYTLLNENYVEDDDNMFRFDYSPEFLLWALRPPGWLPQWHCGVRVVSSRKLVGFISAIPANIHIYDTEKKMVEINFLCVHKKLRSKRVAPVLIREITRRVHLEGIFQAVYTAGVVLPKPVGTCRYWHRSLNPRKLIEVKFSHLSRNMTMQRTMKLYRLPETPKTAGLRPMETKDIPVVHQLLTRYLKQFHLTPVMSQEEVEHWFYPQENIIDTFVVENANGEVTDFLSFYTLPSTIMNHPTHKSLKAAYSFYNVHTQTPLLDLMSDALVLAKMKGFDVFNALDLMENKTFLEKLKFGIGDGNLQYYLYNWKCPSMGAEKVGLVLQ

[6] = (§1) Maximum tolerated dose in orally twice daily dosed mouse; type: ADME, organism-based; conditions: in vivo, po
[7] = test system: Mus musculus; assay: Toxicity in bloodstream form of Trypanosoma brucei beucei GVR35 infected NMRI mouse stage 2 human African trypanosomiasis model at 150 mg/kg, po bid for 5 days; type: organism-based; parameters: dose 150 mg/kg, route oral; conditions: in vivo, 120 h
[8] = test system: Trypanosoma brucei brucei; assay: Trypanocidal activity against bloodstream form of Trypanosoma brucei brucei S427 infected in mouse stage 1 HAT model at […], po bid for 4 days; type: functional, organism-based
[9] = test system: Trypanosoma brucei rhodesiense; assay: Trypanocidal activity against bloodstream form of Trypanosoma brucei rhodesiense STIB900 infected in twice daily po dosed mouse; type: functional
[10] = test system: Mus musculus; assay: Oral bioavailability in NMRI mouse at 10 mg/kg by UPLC-MS/MS method; type: ADME, organism-based; conditions: in vivo
[11] = Plasma protein binding in mouse; type: ADME, organism-based; conditions: read-out: PPB (converted)
[12] = test system: Mus musculus; assay: AUC (0 to 8 hrs) in NMRI mouse at 10 mg/kg, po by UPLC-MS/MS method; type: ADME, organism-based, Plasma; parameters: time < 8 hr, dose 10 mg/kg, route oral; conditions: in vivo
[13] = test system: Trypanosoma brucei rhodesiense; assay: Trypanocidal activity against bloodstream form of Trypanosoma brucei rhodesiense STIB900 infected in mouse stage 1 HAT model at 50 mg/kg, po bid for 4 days; type: functional, organism-based; parameters: dose 50 mg/kg
[14] = test system: Mus musculus; assay: Toxicity in bloodstream form of Trypanosoma brucei beucei GVR35 infected NMRI mouse stage 2 human African trypanosomiasis model at 100 mg/kg, po bid for 5 days; type: organism-based; parameters: dose 100 mg/kg, route oral; conditions: in vivo, 120 h
[15] = target: Voltage-gated inwardly rectifying potassium channel KCNH2 (Homo sapiens, UniProt Q12809); assay: Inhibition of human ERG
Chain of Voltage-gated inwardly rectifying potassium channel KCNH2 (Q12809 whole entry): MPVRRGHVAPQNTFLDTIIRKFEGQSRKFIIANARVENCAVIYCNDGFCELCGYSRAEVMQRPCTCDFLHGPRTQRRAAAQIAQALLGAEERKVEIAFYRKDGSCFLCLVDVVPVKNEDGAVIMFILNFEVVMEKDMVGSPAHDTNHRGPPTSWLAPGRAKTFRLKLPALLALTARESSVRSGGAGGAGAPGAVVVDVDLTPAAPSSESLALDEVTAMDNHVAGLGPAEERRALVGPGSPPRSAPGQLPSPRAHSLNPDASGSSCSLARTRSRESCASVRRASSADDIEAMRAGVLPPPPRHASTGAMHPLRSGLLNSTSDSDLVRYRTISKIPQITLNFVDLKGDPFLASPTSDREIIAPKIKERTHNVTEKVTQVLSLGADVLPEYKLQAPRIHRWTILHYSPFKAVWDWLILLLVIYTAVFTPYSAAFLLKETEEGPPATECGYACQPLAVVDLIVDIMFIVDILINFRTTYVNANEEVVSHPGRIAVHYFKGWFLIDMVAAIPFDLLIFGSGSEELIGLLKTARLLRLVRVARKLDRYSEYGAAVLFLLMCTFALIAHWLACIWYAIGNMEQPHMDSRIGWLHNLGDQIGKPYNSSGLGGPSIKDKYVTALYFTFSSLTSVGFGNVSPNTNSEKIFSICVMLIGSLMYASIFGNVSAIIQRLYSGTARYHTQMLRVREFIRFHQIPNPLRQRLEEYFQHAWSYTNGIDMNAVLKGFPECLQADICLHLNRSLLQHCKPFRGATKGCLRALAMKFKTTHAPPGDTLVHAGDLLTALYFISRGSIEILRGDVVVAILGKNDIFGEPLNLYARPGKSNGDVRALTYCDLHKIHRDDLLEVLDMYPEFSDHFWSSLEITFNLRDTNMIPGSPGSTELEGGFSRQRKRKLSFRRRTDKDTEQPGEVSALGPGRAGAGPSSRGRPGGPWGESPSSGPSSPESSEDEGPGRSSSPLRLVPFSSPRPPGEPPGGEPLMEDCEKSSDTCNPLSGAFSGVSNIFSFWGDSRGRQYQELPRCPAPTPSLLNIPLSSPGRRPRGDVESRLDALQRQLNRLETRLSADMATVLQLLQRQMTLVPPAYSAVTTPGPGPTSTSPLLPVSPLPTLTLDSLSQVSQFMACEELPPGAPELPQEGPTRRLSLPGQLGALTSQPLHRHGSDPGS

[16] = test system: Mus musculus; assay: as §1; type: ADME, organism-based; conditions: in vivo, po
[17] = test system: Trypanosoma brucei brucei; assay: Trypanocidal activity against bloodstream form of Trypanosoma brucei beucei GVR35 infected in NMRI mouse stage 2 human African trypanosomiasis model at 100 mg/kg, po bid for 8 days followed by three rounds of 3 day dosing at 100 mg/kg with two day drug holiday between rounds; type: functional, organism-based

| SMILES | EC50 [1] [nM] | IC50 [2] [nM] | EC50 [3] [nM] | also measured |
| --- | --- | --- | --- | --- |
| Cc1nn(C)c(C)c1NS(=O)(=O)c1c(Cl)cc(C#Cc2cncn2C)cc1Cl | 16600 | 660 | 3900 |  |
| Cc1nn(C)c(C)c1NS(=O)(=O)c1c(Cl)cc(CCCC2CCNCC2)cc1Cl | 2500 | 2 | 2 |  |
| Cc1nn(C)c(C)c1N(C(F)F)S(=O)(=O)c1c(Cl)cc(CCCOC[C@@H]2CCCN2C)cc1Cl | 2800 | 2 |  |  |
| Cc1nn(C)c(C)c1NS(=O)(=O)c1c(Cl)cc(C#CCN2CCN(C)CC2)cc1Cl | > 50000 | 160 | 660 | Selectivity Index [4]: 7; IC50 [5]: 4600 nM |
| Cc1nn(C)c(C)c1N(C(F)F)S(=O)(=O)c1c(Cl)cc(CCCOC[C@H]2CCCCN2C)cc1Cl | 3500 | 2 |  |  |
| Cc1nn(C)c(C)c1NS(=O)(=O)c1ccc(CCCCC2CCN(C)CC2)cc1 | 3600 | 3 | 16 |  |
| Cc1nn(C)c(C)c1N(CC(F)(F)F)[S+](=O)([O-])c1c(Cl)cc(CCCC2CCN(C)CC2)cc1Cl |  |  |  | MTD [6]: 150 mg/kg; Activity [7]: Non-toxic |
| Cc1nn(C)c(C)c1NS(=O)(=O)c1c(Cl)cc(-c2ccnc(N3CCNCC3)c2)cc1Cl |  |  |  | Activity [8]: Active; MCD [9]: 50 mg/kg; F [10]: 20%; fraction unbound [11]: 0.06; AUC [12]: 392 µg/min/mL; Activity [13]: Active |
| Cc1nn(C)c(C)c1NS(=O)(=O)c1ccc(CCCC2CCNCC2)cc1 | > 50000 | 9 | 110 |  |
| Cc1nn(C)c(C)c1N(C(F)F)S(=O)(=O)c1c(Cl)cc(CCCC2CCN(C)CC2)cc1Cl |  |  |  | Activity [14]: Toxic; IC50 [15]: 600 nM; MTD [16]: 100 mg/kg; inhibition [17]: Active |
| Cn1cc(NS(=O)(=O)c2c(Cl)cc(-c3ccnc(N4CCNCC4)c3)cc2Cl)cn1 | 10300 |  | 370 |  |
| Cc1c(NS(=O)(=O)c2c(Cl)cc(-c3ccnc(N4CCNCC4)c3)cc2Cl)c(CC(C)C)nn1C [ZELENIRSTAT] |  |  |  | MCD [9]: 6 mg/kg; F [10]: 93%; AUC [12]: 3400 µg/min/mL |
| Cc1nn(C)c(C)c1NS(=O)(=O)c1c(Cl)cc(CCCN2CCN(C)CC2)cc1Cl | 31400 | 3 |  |  |
| Cc1c(NS(=O)(=O)c2c(Cl)cc(-c3ccnc(N4CCNCC4)c3)cc2Cl)cnn1C | 1230 |  | 24 |  |
